The results in this text go back to patent EP1087941B9, “THIOLESTERS AND USES THEREOF” (THE UNITED STATES OF AMERICA, as represented by THE …, priority 1998, dated 1999).

For one data set, the system named is CEM-SS cells. The experiment in a line: cells. In kind it is cell-based. As to conditions: for IC50: Homo sapiens, CEM-SS. The source says: (§1) One exemplary means to determine antiviral activity is with CEM-SS cells and virus (e.g., HIV-1RF) (MOI = 0.01) using the XTT (2,3-bis[2-methoxy- 4-nitro-5-sulfophenyl] -5- [(phenylamino)carbonyl]-2H-tetrazolium hydroxide) cytoprotection assay, as described by Rice (1993) PNAS 90:9721-9724, and Rice (1997) Antimicrob. Agents Chemother. 41:419-426. Briefly, cells are infected with HIV-1RF (or other virus to be tested) in the presence of various dilutions of test compounds (thiolesters and controls). The cultures are incubated for seven days. During this time control cultures without protective compounds (i.e., compounds with anti-viral activity) replicate virus, induce syncytia, and result in about 90% cell death. The cell death is measured by XTT dye reduction. XTT is a soluble tetrazolimn dye that measures mitochondrial energy output, similar to MTT. Positive controls using dextran sulfate (an attachment inhibitor) or 3'-Azido -2'-3'-dideoxythymidine, AZT (a reverse transcriptase inhibitor) are added to each assay. Individual assays are done in duplicate using a sister plate method.
(§2) Effective antiviral concentrations providing 50% cytoprotection (EC50), and cellular growth inhibitory concentrations causing 50% cytotoxicity (IC50) are calculated.

The target in data set [1] is T1, recombinant HIV-1 NCp7 protein (Human immunodeficiency virus type 1 group M subtype B, UniProt P03347).
T1 construct: within the nucleocapsid p7 (NCp7) protein portion of the polyprotein
In words: Trp37 zinc finger fluorescence (zinc ejection) assay. As to conditions: for Zinc Finger Reactivity RFU/30 min: Table 2. In kind it is biochemical. The protocol: Zinc finger reactivity was measured using a Zn specific fluorochrome, TSQ, N-(6-methoxy-8-quinolyl) -p-toluenesulfonamide, assay or a Trp37 zinc finger fluorescence assay. Fluorescent measurements of the Trp37 residue in the C-terminal finger of recombinant HIV-1 NCp7 protein were performed as described by Rice (1995) Science 270:1194-1197; Rice (1997) Antimicrob. Agents Chemother. 41:419-426. Measurement of Zn ejection from both fingers was measured using the Zn-selective fluorchrome probe TSQ (Molecular Probes, Eugene OR) as described by Rice (1996) J. Med. Chem 39:3606-3616. Measurement of the ability of NCp7 to bind to a DNA oligomer, a 44 mer: […] (SEQ ID NO:1), analogous to the HIV-1 RNA packaging site was carried out as described by Huang (1998) J. Med. Chem. 41:1371-1381, see also, Rossio (1998) HIV Pathogenesis and Treatment: Keystone Symposium on Molecular and Cellular Biology, Abstract # 4082. Briefly, 50 nM NCp7 was treated with test compounds for 1 hour at RT in […] buffer containing 10% glycerol and 50 mM Tris-HCl (pH 7.5). Labeled oligomer (0.1 picomole, end labeled [^32P]) was added in an equal volume of buffer containing 10% glycerol, 50 mM Tris-HCl (pH 7.5), 400 mM KCl and 40 mM MgCl2. The reaction was continued for 15 min at room temperature, and a total of […] (or 1/4 of the total reaction volume) was separated on nondenaturing 4.5% polyacrylamide gels in 0.5X Tris-Borate electrophoresis buffer. NCp7-oligomer complexes were visualized by autoradiography.
Changes in the intrinsic fluorescence of aromatic protein moieties are commonly used to monitor a reaction which involves a change in protein conformation. In the present invention, fluorescence can be used to monitor the loss of metal ion from a zinc finger, e.g., the loss of zinc from a CCHC retroviral zinc finger protein, after contact with a thiolester of the invention. The intrinsic fluorescence of Trp 37 in the second zinc finger of HIV-1 NC protein has been used to monitor nucleic acid binding and conformation of the zinc finger complex (see, Summers (1992) supra).
Zinc ejection is measured by the ability of compounds to chemically attack the cysteines in purified NCp7 protein resulting in a loss of fluorescence due to the movement of the tryptophan 37 residue from an exposed to an internal position on the protein. Zinc ejection is measured and expressed as either percent decrease in total fluorescence or decrease in relative fluorescence units per min during a 30 min assay (RFU/min). A thiolester is considered within the scope of the invention if any amount of zinc ejection is detected. For example, compound 50 has a zinc ejection rate of 0.86 RFU/min.

In a further data set the test system is HIV-1RF. The experiment in a line: XTT cytoprotection assay (antiviral activity). In kind it is cell-based.
From the text: as §1, §2

[2] abbreviates: read-out: Antiviral Activity IC50.
The mark [3] stands for this setting: Table 3, average decrease in relative fluorescence.
The mark [4] stands for this setting: Human immunodeficiency virus 1, read-out: Antiviral Activity EC50.
The mark [5] stands for this setting: Table 6, average decrease in relative fluorescence units over 30 min.
Setting [6] is: Human immunodeficiency virus 1, read-out: Antiviral Activity EC50%.
[7] abbreviates: average decrease in relative fluorescence.
Where [8] appears, read: read-out: Antiviral Activity IC50%.
The mark [9] stands for this setting: Table 10, average decrease in relative fluorescence units over 30 min.

Where two headings read alike, the source gives them in different places.

For `O=C(Nc1ccc(S(=O)(=O)c2ccc(NC(=O)c3ccccc3SSc3ccccc3C(=O)Nc3ccc(S(=O)(=O)c4ccc(NC(=O)c5cc([N+](=O)[O-])cc([N+](=O)[O-])c5)cc4)cc3)cc2)cc1)c1cc([N+](=O)[O-])cc([N+](=O)[O-])c1` [Compound 33D], the IC50 with CEM-SS cells (setting [2]) was > 316 µM. In addition, in data set [1] (setting [3]), the “Zinc Finger Reactivity RFU/ min” value is 1.6 RFU/ min. The EC50 with HIV-1RF (setting [4]) worked out at 240 µM.

Consider `O=C(CCCCBr)Sc1ccccc1C(=O)Nc1ccc(S(=O)(=O)c2ccc(NS(=O)(=O)Cc3ccccc3[N+](=O)[O-])cc2)cc1` [Compound 49], for which the IC50 with CEM-SS cells (setting [2]) was > 316 µM. In data set [1] (setting [5]), the “Zinc Finger Reactivity RFU/ min” value was 1.9 RFU/ min. The EC50 in the data set with HIV-1RF (setting [6]) was > 316 µM.

Regarding `NS(=O)(=O)c1ccc(CCn2sc3ccccc3c2=O)cc1` [24 BITA], the IC50 with CEM-SS cells (setting [2]) turned out to be 45.5 µM. Further, the “Zinc Finger Reactivity RFU/30 min” value in data set [1] (setting [7]) is 2.7 RFU/30 min. Also, in the data set with HIV-1RF (setting [4]), the EC50 stood at 2 µM.

Take `COc1ccc(C(=O)Sc2ccccc2C(=O)Nc2ccc(S(=O)(=O)NC(C)=O)cc2)cc1` [Compound 42]: the IC50 was 43.7 µM in the data set on CEM-SS cells (setting [8]) and ~50 µM in the data set with CEM-SS cells (read-out: IC50 / cellular toxicity). Further, the “Zinc Finger Reactivity RFU/ min” value in data set [1] (Table 5, average decrease in relative fluorescence units over 30 min) is 3.5 RFU/ min. In addition, the EC50 with HIV-1RF (setting [4]) came to 2.8 µM.

`CC(=O)NS(=O)(=O)c1ccc(NC(=O)c2ccccc2SC(=O)CCCCC[n+]2ccccc2)cc1` [Compound 55]: the IC50 in the data set on CEM-SS cells (setting [8]) came to 69.7 µM. Further, in data set [1] (setting [9]), the “Zinc Finger Reactivity RFU/ min” value came to 1.9 RFU/ min. For the same compound, in the data set on HIV-1RF (setting [6]), the EC50 was found to be 10.5 µM.

With `CC(=O)NS(=O)(=O)c1ccc(NC(=O)c2ccccc2NC(=O)CCCC[n+]2ccccc2)cc1` [Compound 56], the IC50 in the data set with CEM-SS cells (setting [8]) was > 316 µM. The “Zinc Finger Reactivity RFU/ min” value in data set [1] (setting [9]) came to 2.6 RFU/ min. Besides, in the data set on HIV-1RF (setting [6]), the EC50 was > 316 µM. Besides, the antiviral activity result with HIV-1RF (result in words) is “inactive”.

Turning to `CC(=O)Nc1ccc(S(=O)(=O)Nc2ccc(S(=O)(=O)c3ccc(-n4sc5ccccc5c4=O)cc3)cc2)cc1` [28 BITA], the IC50 in the data set with CEM-SS cells (setting [2]) was 188 µM. In addition, in data set [1] (setting [3]), the “Zinc Finger Reactivity RFU/ min” value came to 7.9 RFU/ min. For the same compound, in the data set with HIV-1RF (setting [4]), the EC50 was determined as 9.6 µM.

Consider `CC(=O)Nc1ccc(S(=O)(=O)Nc2ccc(S(=O)(=O)c3ccc(NC(=O)c4ccccc4SSc4ccccc4C(=O)Nc4ccc(S(=O)(=O)c5ccc(NS(=O)(=O)c6ccc(NC(C)=O)cc6)cc5)cc4)cc3)cc2)cc1` [Compound 28D], for which the IC50 in the data set on CEM-SS cells (setting [2]) is 12.7 µM. In data set [1] (setting [3]), the “Zinc Finger Reactivity RFU/ min” value amounted to 5.9 RFU/ min. In the data set with HIV-1RF (setting [4]), the EC50 is 1 µM.

With `CC(=O)Nc1cccc(S(=O)(=O)c2cccc(NC(=O)c3ccccc3SC(=O)CCCC[n+]3ccccc3)c2)c1` [Compound 52], the IC50 in the data set with CEM-SS cells (setting [2]) amounted to 205 µM. The “Zinc Finger Reactivity RFU/ min” value in data set [1] (setting [5]) was found to be 1.1 RFU/ min. For the same compound, in the data set on HIV-1RF (setting [6]), the EC50 is 4.9 µM.

On to `NS(=O)(=O)c1ccc(NC(=O)CNC(=O)c2ccccc2SSc2ccccc2C(=O)NCC(=O)Nc2ccc(S(N)(=O)=O)cc2)cc1` [Compound 25D, N,N'-(2,2'-dithiodibenzoyl)-bis-4-(glycinamido)benzene-sulfonamide], for which the IC50 in the data set with CEM-SS cells (setting [2]) stood at 17.6 µM. Also, the “zinc finger reactivity / zinc ejection rate” value in data set [1] turned out to be 7.9 RFU/min. In addition, in data set [1] (setting [7]), the “Zinc Finger Reactivity RFU/30 min” value amounted to 7.9 RFU/30 min. Also, the EC50 in the data set on HIV-1RF (setting [4]) was 1.6 µM.

For the compound `O=C(Nc1ccc(S(=O)(=O)c2ccc([N+](=O)[O-])cc2)cc1)c1ccccc1SSc1ccccc1C(=O)Nc1ccc(S(=O)(=O)c2ccc([N+](=O)[O-])cc2)cc1` [Compound 31D], the IC50 in the data set on CEM-SS cells (setting [2]) is > 316 µM. Moreover, in the data set with CEM-SS cells (high test dose of 316 µM), the “toxicity at the high test dose” value is recorded as “no toxicity”. In addition, the “Zinc Finger Reactivity RFU/ min” value in data set [1] (setting [3]) came out at 2.9 RFU/ min. The EC50 in the data set with HIV-1RF (setting [4]) was found to be 12.2 µM; with HIV-1RF (Human immunodeficiency virus 1, read-out: EC50 (concentration inhibiting 50% virus replication)), 12.2 µM.

Consider `O=C(CCCC[n+]1ccccc1)Sc1ccccc1C(=O)Nc1ccc(S(=O)(=O)c2ccc(NS(=O)(=O)Cc3ccccc3[N+](=O)[O-])cc2)cc1` [Compound 50], for which the IC50 with CEM-SS cells (setting [2]) is > 316 µM. In addition, the “zinc finger reactivity / zinc ejection rate” value in data set [1] turned out to be 0.86 RFU/min. Moreover, in data set [1] (setting [5]), the “Zinc Finger Reactivity RFU/ min” value is on record as 0.86 RFU/ min. Moreover, in the data set with HIV-1RF (setting [6]), the EC50 came to 2.9 µM.
